Test results as given in patent publication US6906097B2, “8-azaprostaglandin analogs as agents for lowering intraocular pressure” (Allergan, Inc., priority 2002, dated 2005).

What was measured:
hEP4 = molecular target: T1, hEP4 (Homo sapiens, UniProt P35408); experiment: Functional data, human recombinant EP4 receptor stable transfectants; assay type: cell-based
T1 construct: expressed in transfected cells
Procedure: (§1) Human Recombinant EP1, EP2, EP3, EP4, FP, TP, IP and DP Receptors: Stable Transfectants
Plasmids encoding the human EP1, EP2, EP3, EP4, FP, TP, IP and DP receptors were prepared by cloning the respective coding sequences into the eukaryotic expression vector pCEP4 (Invitrogen). The pCEP4 vector contains an Epstein Barr virus (EBV) origin of replication, which permits episomal replication in primate cell lines expressing EBV nuclear antigen (EBNA-1). It also contains a hygromycin resistance gene that is used for eukaryotic selection. […] HEK-293 cells were grown in DMEM with 10% fetal bovine serum (FBS), 250 μg ml^−1 G418 (Life Technologies) and 200 μg ml^−1 gentamicin or penicillin/streptomycin.
For transfection, the cells were grown to 50-60% confluency on 10 cm plates. The plasmid pCEP4 incorporating cDNA inserts for the respective human prostanoid receptor (20 μg) was added to 500 μl of 250 mM CaCl2. […] After 30 min, 9 ml DMEM were added to the mixture. The DNA/DMEM/calcium phosphate mixture was then added to the cells, which had been previously rinsed with 10 ml PBS. The cells were then incubated for 5 hr at 37° C. in humidified 95% air/5% CO2. The calcium phosphate solution was then removed and the cells were treated with 10% glycerol in DMEM for 2 min. The glycerol solution was then replaced by DMEM with 10% FBS. The cells were incubated overnight and the medium was replaced by DMEM/10% FBS containing 250 μg ml^−1 G418 and penicillin/streptomycin. The following day hygromycin B was added to a final concentration of 200 μg ml^−1.
(§2) Ten days after transfection, hygromycin B resistant clones were individually selected and transferred to a separate well on a 24 well plate. At confluence each clone was transferred to one well of a 6 well plate, and then expanded in a 10 cm dish. Cells were maintained under continuous hygromycin selection until use.

hTP = molecular target: T2, hTP (Homo sapiens, UniProt P21731); experiment: Functional data, human recombinant TP receptor stable transfectants; assay type: cell-based
T2 construct: expressed in transfected cells
T2 sequence (P21731 1-343): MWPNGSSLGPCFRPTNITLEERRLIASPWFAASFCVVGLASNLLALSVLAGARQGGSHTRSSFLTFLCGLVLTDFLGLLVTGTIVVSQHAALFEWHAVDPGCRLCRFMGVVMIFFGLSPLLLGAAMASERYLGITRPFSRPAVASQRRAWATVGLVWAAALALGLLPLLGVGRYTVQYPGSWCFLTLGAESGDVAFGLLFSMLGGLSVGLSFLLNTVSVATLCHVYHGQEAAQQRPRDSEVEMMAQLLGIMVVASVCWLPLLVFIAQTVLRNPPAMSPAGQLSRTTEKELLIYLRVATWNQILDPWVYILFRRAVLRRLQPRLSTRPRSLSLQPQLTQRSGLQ
Procedure: as §1
Plasmids encoding the human EP1, EP2, EP3, EP4, FP, TP, IP and DP receptors were prepared by cloning the respective coding sequences into the eukaryotic expression vector pCEP4 (Invitrogen). The pCEP4 vector contains an Epstein Barr virus (EBV) origin of replication, which permits episomal replication in primate cell lines expressing EBV nuclear antigen (EBNA-1). It also contains a hygromycin resistance gene that is used for eukaryotic selection. The cells employed for stable transfection were human embryonic kidney cells (HEK-293) that were transfected with and express the EBNA-1 protein. These HEK-293-EBNA cells (Invitrogen) were grown in medium containing Geneticin (G418) to maintain expression of the EBNA-1 protein. HEK-293 cells were grown in DMEM with 10% fetal bovine serum (FBS), 250 μg ml^−1 G418 (Life Technologies) and 200 μg ml^−1 gentamicin or penicillin/streptomycin.
For transfection, the cells were grown to 50-60% confluency on 10 cm plates. The plasmid pCEP4 incorporating cDNA inserts for the respective human prostanoid receptor (20 μg) was added to 500 μl of 250 mM CaCl2. HEPES buffered saline×2 (2×HBS, 280 mM NaCl, 20 mM HEPES acid, 1.5 mM Na2 HPO4, pH 7.05-7.12) was then added dropwise to a total of 500 μl, with continuous vortexing at room temperature. After 30 min, 9 ml DMEM were added to the mixture. The DNA/DMEM/calcium phosphate mixture was then added to the cells, which had been previously rinsed with 10 ml PBS. The cells were then incubated for 5 hr at 37° C. in humidified 95% air/5% CO2. The calcium phosphate solution was then removed and the cells were treated with 10% glycerol in DMEM for 2 min. The glycerol solution was then replaced by DMEM with 10% FBS. The cells were incubated overnight and the medium was replaced by DMEM/10% FBS containing 250 μg ml^−1 G418 and penicillin/streptomycin. The following day hygromycin B was added to a final concentration of 200 μg ml^−1.
as §2

T1 sequence (P35408 whole entry): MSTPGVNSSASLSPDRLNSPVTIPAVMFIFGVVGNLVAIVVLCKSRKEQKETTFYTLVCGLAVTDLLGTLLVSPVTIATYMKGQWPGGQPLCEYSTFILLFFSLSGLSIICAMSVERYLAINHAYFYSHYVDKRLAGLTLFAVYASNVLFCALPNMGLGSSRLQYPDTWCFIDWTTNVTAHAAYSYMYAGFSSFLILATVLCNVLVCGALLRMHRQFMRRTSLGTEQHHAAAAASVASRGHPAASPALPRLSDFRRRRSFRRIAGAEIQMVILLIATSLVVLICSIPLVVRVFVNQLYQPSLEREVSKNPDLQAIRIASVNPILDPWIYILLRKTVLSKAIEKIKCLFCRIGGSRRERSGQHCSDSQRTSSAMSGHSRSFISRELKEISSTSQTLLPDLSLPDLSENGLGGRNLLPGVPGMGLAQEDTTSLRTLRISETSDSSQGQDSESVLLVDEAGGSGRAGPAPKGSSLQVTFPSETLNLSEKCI

EC50 (hEP4): 0.7 nM
EC50 (hTP): > 10000 nM
SMILES: O=C(O)CCCCCCN1C(=O)CC[C@@H]1CCC(O)Cc1cccc(Cl)c1 (stereo partly drawn) [Example 1, 7-[2S-[3R-Hydroxy-4-(chloro-phenyl)-butyl]-5-oxo-pyrrolidin-1-yl]-heptanoic acid]
